Test results: patent US12433876B2, “Septin inhibitors for treatment of cancers” (UNIVERSITY OF ROCHESTER, priority 2019, dated 2025)

Columns and labels:
[1] = test system: septin-9; test: Confocal analysis of septin-9 filament structure; assay type: cell-based
[2] = biological target: septin-6 (Homo sapiens, UniProt Q14141); test: Confocal analysis of septin-6; assay type: cell-based; conditions: SKOV-3, 1 μM, 48 hours
[3] = test system: human pancreatic cancer cells (BXPC-3 and PANC-1); test: MTS cell viability, pancreatic cancer cells; assay type: cell-based
Experimental: (§1) Cell Lines, Cell Culture, and Reagents. PANC-1, BXPC-3 and CAPAN-1, SKOV-3, MCF7, MDA-MD-231 cells were obtained from ATCC and maintained in DMEM, RPMI-1640 and IMDM supplemented with 10% fetal calf serum penicillin (100 units/mL), and streptomycin (100 μg/mL) at 37° C. with 5% CO2 in a humidified incubator. JIMT-1 cells were purchased from AddexBio Inc, USA (catalog number: C0006005) and maintained in 10% FBS and antibiotic supplemented DMEM. […] The reaction was monitored using thin-layer chromatography plates with DCM-MeOH or pure ethyl acetate as eluent. Spots were monitored in a UV chamber. […] ICM scores for each compound and their poses were calculated and compared with FCF. […] Cell viability of PANC-1, BXPC-3 and CAPAN-1 pancreatic cancer cells treated with UR214-9 was measured using the Cell Titre96R Aqueous One Solution Cell Proliferation Assay (Promega Corp., catalog number: G3580) following the procedure published earlier. […] The cells were analyzed by a 305 flow cytometer and relative live and dead cell population was calculated by inputting equal number of cells in both vehicle and control group.

[4] = test system: PANC-1 cells; test: Live/Dead dye flow cytometry, PANC-1; assay type: cell-based, human; conditions: PANC-1, 3 μM
Experimental: as §1

[5] = test system: PANC-1 cells; test: Cell cycle analysis (PI, flow cytometry), PANC-1; assay type: cell-based, human
Experimental: For cell cycle analysis, BXPC-3 and PANC-1 and JIMT-1 cells (100,000/well) were seeded overnight in a 6 well dishes and allowed to adhere overnight. Media was replaced with fresh complete medium supplemented with DMSO or UR214-9 (100 nM and 3 μM) and cells were incubated for 72 hours. The media containing the drugs was removed and cells were washed twice with PBS and trypsinized gently. The cells were collected in 15 mL tubes, complete DMEM media was added to block trypsin and cells were centrifuged. The supernatants were removed and cells were gently treated with 70% cold-EtOH for 30 minutes. The fixed cells were centrifuged and the pellets obtained were collected in flow cytometry tubes and stained with preformulated PI/RNase solution (Cell Signaling Technology, catalog number: 4087s) for 30 minutes. The PI content was analyzed using a flow cytometer. Data was processed using Flowjo software.

septin-6, sequence (Q14141 whole entry): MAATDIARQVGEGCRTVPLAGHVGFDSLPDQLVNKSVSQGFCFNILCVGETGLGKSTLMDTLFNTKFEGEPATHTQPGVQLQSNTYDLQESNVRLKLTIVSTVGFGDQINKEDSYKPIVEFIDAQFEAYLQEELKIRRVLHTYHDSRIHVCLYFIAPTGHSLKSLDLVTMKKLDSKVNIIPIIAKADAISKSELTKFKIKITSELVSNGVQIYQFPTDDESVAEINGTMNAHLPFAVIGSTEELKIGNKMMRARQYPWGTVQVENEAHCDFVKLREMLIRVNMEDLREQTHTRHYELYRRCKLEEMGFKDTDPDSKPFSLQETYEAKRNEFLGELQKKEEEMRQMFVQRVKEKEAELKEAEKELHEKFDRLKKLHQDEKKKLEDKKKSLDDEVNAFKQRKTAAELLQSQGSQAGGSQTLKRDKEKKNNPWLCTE

With `O=C(Nc1cc(Cl)nc(Cl)c1)Nc1cccc(SC(F)(F)F)c1F` [UR214-9] the septin-9 filament structures ([1]; PANC-1 and JIMT-1 cells) was “clear disarrangement in septin-9 filament structures”, the septin-9 structure ([1]; SKOV-3, 1 μM, 48 hours) was “reorganization of septin-9” and the “septin-6 (confocal)” value [2] was “decreased upon treatment”. For the same compound, the viability ([3]; BXPC-3 and PANC-1, 72 hours of treatment) was “reduced the viability”, the “growth (MTS assay), dose dependently” value ([3]; BXPC-3 and PANC-1, by 48th hour of drug exposure) was “reduced the growth” and the dead-cell population [4] was “over 38%”. The cell cycle distribution ([5]; PANC-1, 100 nM) was “minor S-phase arrest” and the cell cycle distribution ([5]; PANC-1, 3 μM) was “complete arrest in sub-G1/G0 phase”.
